According to US7351722B2, “Use of Mangafodipir for treating oxidative stress effects” (Universite Rene Descartes (Paris V), priority 2001, dated 2008):

How the values were obtained:
[1] = system: acetaminophen-induced acute hepatic failure; experiment: Animal survival in acetaminophen-induced acute hepatic failure, comparison of Mangafodipir, MnTBAP and CuDIPS (Example 7); type: in vivo, mice; conditions: for number of surviving animals: 10 mg/kg bolus 2 h before 1000 mg/kg APAP, n = 12
Protocol: The Mangafodipir, the MnTBAP or the CuDIPS are administered in the form of a bolus, in the preventive capacity, 2 hours before the acetaminophen.
Animal survival is monitored for 24 hours after the administration of acetaminophen.

[2] = system: hepatocellular deficiency; conditions: inventors' prior studies (PCT/WO 01/12327; Ferret et al. 2001); cited from earlier work

Row | Compound | number of surviving animals ([1]; time 0 h) | number of surviving animals ([1]; time 6 h) | number of surviving animals ([1]; time 8 h) | number of surviving animals ([1]; time 9 h) | number of surviving animals ([1]; time 10 h) | number of surviving animals ([1]; time 11 h) | number of surviving animals ([1]; time 12 h) | number of surviving animals ([1]; time 13 h) | number of surviving animals ([1]; time 14 h) | number of surviving animals ([1]; time 15 h) | number of surviving animals ([1]; time 16 h) | number of surviving animals ([1]; time 17 h) | number of surviving animals ([1]; time 18 h) | number of surviving animals ([1]; time 20 h) | number of surviving animals ([1]; time 22 h) | number of surviving animals ([1]; time 24 h) | effect on survival rate ([1]; 10 mg/kg preventively, 1000 mg/kg APAP, 24 h) | effect on hepatocellular deficiency [2]
1 | CC(C)c1cc(C(=O)[O-])c(O)c(C(C)C)c1.CC(C)c1cc(C(=O)[O-])c(O)c(C(C)C)c1.[Cu+2] [CuDIPS, Cu[II]-[diisopropylsalicylate]] | 12 | 12 | 11 | 10 | 9 | 7 | 7 | 5 | 5 | 5 | 4 | 4 | 3 | 3 | 3 | 3 | does not significantly increase the survival rate | no significant effect
2 | O=C(O)c1ccc(-c2c3nc(c(-c4ccc(C(=O)O)cc4)c4ccc([n-]4)c(-c4ccc(C(=O)O)cc4)c4nc(c(-c5ccc(C(=O)O)cc5)c5ccc2[n-]5)C=C4)C=C3)cc1.[Mn+3] [MnTBAP, Mn(III)-tetrakis(5,10,15,20-benzoic acid)-porphyrin] | 12 | 12 | 12 | 12 | 11 | 10 | 10 | 10 | 9 | 9 | 8 | 8 | 8 | 8 | 7 | 7 |  | notable preventive and curative effect
